Assay results published in patent US20180317415A1, “NANOBIONIC LIGHT EMITTING PLANTS” (MASSACHUSETTS INSTITUTE OF TECHNOLOGY, priority 2015, published 2018).

How the values were obtained:
firefly luciferase = firefly luciferase (Photinus pyralis, UniProt P08659); conditions: strong inhibitor of the luciferase; read-out: IC50 as inhibitor of light production; cited from earlier work
[1] = system: firefly luciferase-luciferin reaction; test: light production and light duration in vitro (test tube mixture, photos analysed by Image J); format: biochemical; conditions: for light duration extended by: PLGA-LH2 1 mM, CS-CoA 625 μM
living watercress plant = test: light emission in living watercress plant after LIN/PBIN infiltration of nanoparticles; format: in vivo, watercress (Nasturtium officinale); conditions: 1-2 hours compared to 30 minutes incubation of SNP-Luc (LIN) before free luciferin 0.1 mM
Experimental: Leaf discs of spinach plants 3 week-olds were infiltrated with 30 mM HEPES buffer (pH 7.4) via PBIN at speed of 0.4 bar/s and cell membranes were stained with FM 464 fluorescent dye (red).
SNP-Luc was infiltrated by LIN 1 h in advance, and PLGA-LH alone or PLGA-LH and CS-CoA were infused into a watercress plant by PBIN. […] To extend the illumination time, the third nanoparticle class, CS-CoA, was co-infiltrated with PLGA-LH by PBIN. […] In FIG. 3E, a and b represent concentration of SNP-Luc (μM) and concentration of PLGA-LH2 (mM), respectively. […] Maximum number of photons/sec was obtained from the first photo (analyzed by Image J). […]
Infiltration of nanoparticles in living plants. […] The pressure was monitored by digital hydronic manometer (Dwyer instruments, IN, USA). […]
Estimation of photon numbers from light emitting plants. The power of LED light was first measured at 12.70 cm away using a photo-detector (λ=530 nm, detector surface area=1 cm^2) (PM100, ThorLabs, NJ, USA). The number of photons incident on the photo-detector was determined using the measured power (10 nW) divided by the energy of a single photon at 530 nm, given by the equation below
An image of the LED light was taken at 68.58 cm of distance with 1/1000 s exposure to avoid saturation of pixels and converted into quantitative values using ImageJ (Mean value=0.016).

firefly luciferase, sequence (P08659 whole entry): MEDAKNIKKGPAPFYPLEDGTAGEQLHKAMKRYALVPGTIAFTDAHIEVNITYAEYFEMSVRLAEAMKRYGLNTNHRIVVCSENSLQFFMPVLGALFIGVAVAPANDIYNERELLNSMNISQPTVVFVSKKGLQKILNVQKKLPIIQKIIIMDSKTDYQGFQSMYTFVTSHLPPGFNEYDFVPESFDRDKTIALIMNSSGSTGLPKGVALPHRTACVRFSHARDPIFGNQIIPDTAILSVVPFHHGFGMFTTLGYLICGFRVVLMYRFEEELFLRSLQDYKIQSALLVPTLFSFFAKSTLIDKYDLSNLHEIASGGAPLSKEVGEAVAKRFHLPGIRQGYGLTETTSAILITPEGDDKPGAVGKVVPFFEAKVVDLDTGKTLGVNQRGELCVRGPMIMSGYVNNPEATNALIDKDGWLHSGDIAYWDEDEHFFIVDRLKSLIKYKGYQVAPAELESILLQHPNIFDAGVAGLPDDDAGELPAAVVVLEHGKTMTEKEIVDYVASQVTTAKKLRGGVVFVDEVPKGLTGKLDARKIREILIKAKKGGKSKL

Compound | IC50 (firefly luciferase) [nM] | light duration extended by ([1]; 200 nM SNP-Luc) [h] | light duration extended by ([1]; 4 μM SNP-Luc) [h] | light duration compared with free luciferase ([1]; 1 mL mixture, 12 nM luciferase, 100 μM luciferin, 100 μM ATP) | initial number of photons, times higher (living watercress plant) [times]
Nc1ncnc2c1ncn2C1OC(COP(=O)(O)OC(=O)c2csc(-c3nc4ccc(O)cc4s3)n2)C(O)C1O (centres unmarked) [dehydroluciferyl-adenylate] | 5 |  |  |  | 
SNP-Luc: firefly luciferase immobilized on 7 nm GPTS-PEG amine silica nanoparticles |  | 22 | 6 | longer light duration than that of free luciferase | 4 to 7
